Data on seven compounds can be found in patent US20250092065A1, “2-(INDAZOL-5-YL)-6-(PIPERIDIN-4-YL)-1,7-NAPHTHYRIDINE DERIVATIVES AND RELATED COMPOUNDS AS MODULATORS FOR SPLICING NUCLEIC ACIDS AND FOR THE TREATMENT OF PROLIFERATIVE DISEASES” (REMIX THERAPEUTICS INC., priority 2022, published 2025).

The subject of data set [1] is K562 cells. Kind of data set: Cell Titer Glo 2.0 cell viability (toxicity) assay, K562. The note with it: 500 cells/well, 72 hours.
Experimental: Compounds described herein were screened for toxicity in K562 (human chronic myelogenous leukemia) and SH-SY5Y (human neuroblastoma) cells using a Cell Titer Glo 2.0 assay.
Cells were plated at 500 cells/well (K562 cells) in 45 μL of IMDM supplemented with 10% FBS in a 384-well opaque plate. Wells containing only medium were used as a blank control. Test compounds (e.g., compounds of Formula (I) or (II)) were first serially diluted in DMSO then diluted 1:100 with EIDM+10% FBS. The final concentration of DMSO was 0.1% in each well. The cells were incubated for 72 hours at 37° C. and 5% CO2 before assaying with Cell Titer Glo 2.0 reagent.
Data set [2] deals with SMN2 mRNA. Kind of data set: RT-qPCR splicing assay, SMN2 mRNA. The note with it: Homo sapiens, canonical junction qPCR panel, Table 4; read-out: SMN2 IC50 (decrease in CJ mRNA levels). Format: cell-based, human. The method, boiled down: (§1)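 A673 or K562 cells treated 24 h at 37 °C with 11-point 3-fold dilutions (top final 10 uM, DMSO ≤0.25%). Lysates analysed by one-step RT-qPCR for canonical (CJ) and alternative-exon (AJ) junctions, normalized to GAPDH, GUSB or PPIA. ΔΔCt vs DMSO, RQ = 2^(−ΔΔCt), expressed as percentage response.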

The subject of data set [3] is MYB. Kind of data set: HiBiT protein abundance assay, MYB (K562 HiBiT knock-in). Format: cell-based, human. The note with it: HiBiT knock-in K562 cells, 24 hours, top dose 10 μM. The method, boiled down:
(§2)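 Luminescence readout: Nano-Glo HiBiT lytic detection after 24 h compound exposure of K562 HiBiT knock-in cells, 10000 cells/well. Dosing 10-pt, 3-fold, top 10 μM final. % response vs untreated parental K562 and DMSO controls; 4PL fit, IC50 = concentration giving 50% protein abundance.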

For data set [4], the system named is HTT. Kind of data set: HiBiT protein abundance assay, HTT (K562 HiBiT knock-in). Format: cell-based, human. The conditions noted are these: HiBiT knock-in K562 cells, 24 hours, top dose 10 μM. The method, boiled down:
as §2

Data set [5] deals with Target C. Kind of data set: HiBiT protein abundance assay, Target C (K562 HiBiT knock-in). Format: cell-based, human. The note with it: HiBiT knock-in K562 cells, 24 hours, top dose 10 μM. Summed up:
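K562 HiBiT knock-in cells (10000/well) were treated 24 h at 37° C with a 10-point 3-fold dilution series (top 10 μM final, ≤0.25% DMSO). HiBiT luminescence was read after lytic LgBiT detection. Percent response used unmodified K562 and DMSO-treated knock-in controls, and IC50 came from a four-parameter fit at 50% of untreated.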

Data set [6] deals with HTT mRNA. Kind of data set: RT-qPCR splicing assay, HTT mRNA canonical (CJ) and alternative (AJ) junction. Type of data set: cell-based, human. The note with it: Homo sapiens; for AC50: HTT alternative junction mRNA, read-out: HTT AJ (increase in AJ mRNA, AC50). Summed up:
as §1

Data set [7] deals with MYB mRNA. Kind of data set: RT-qPCR splicing assay, MYB mRNA canonical (CJ) and alternative (AJ) junction. The note with it: Homo sapiens; for AC50: MYB alternative junction mRNA, read-out: MYB AJ (increase in AJ mRNA, AC50). Format: cell-based, human. The method, boiled down: as §1
The mark [8] stands for this setting: HTT canonical junction mRNA, RT-qPCR, read-out: HTT CJ (decrease in CJ mRNA levels, IC50).
The mark [9] stands for this setting: canonical junction qPCR panel, Table 4, read-out: HTT IC50 (decrease in CJ mRNA levels).
The mark [10] stands for this setting: MYB canonical junction mRNA, RT-qPCR, read-out: MYB CJ (decrease in CJ mRNA levels, IC50).
[11] abbreviates: canonical junction qPCR panel, Table 4, read-out: MYB IC50 (decrease in CJ mRNA levels).

Read-outs that look alike come from different tables or passages of the source.

As to `Cn1cc2cc(-c3ccc4nc(N5CCC(NC(C)(C)C)C5)ccc4n3)c(O)cc2n1` (centres unmarked) [Compound 127], the “Effect of Exemplary Compounds on Cell Viability, K562” value (shortened to “Effect of Exemplary Compounds”) in data set [1] was “B (B represents 100-1000 nM)”. In addition, the IC50 in data set [2], in data set [3], in data set [4], in data set [5], in data set [6] (setting [8]) and in data set [6] (setting [9]) was less than 100 nM each time. The IC50 in data set [7] (setting [10]) and in data set [7] (setting [11]) was less than 100 nM in each case. Moreover, the AC50 in data set [6] (RT-qPCR) and in data set [7] (RT-qPCR) was less than 100 nM in each case.
For `CN(C)C1CCN(c2ccc3nc(-c4cc5cn(C)nc5cc4O)ccc3n2)C1` (centres unmarked) [Compound 129], the “Effect of Exemplary Compounds” value in data set [1] is recorded as “B (B represents 100-1000 nM)”. For the same compound, the IC50 in data set [2] was less than 100 nM; in data set [3], 100 to 1000 nM; in data set [4], 100 to 1000 nM; in data set [5], 100 to 1000 nM; in data set [6] (setting [8]) it was 100 to 1000 nM; in data set [6] (setting [9]) it was 100 to 1000 nM. Also, the IC50 in data set [7] (setting [10]) and in data set [7] (setting [11]) was 100 to 1000 nM each time. Besides, the AC50 in data set [6] (RT-qPCR) and in data set [7] (RT-qPCR) was 100 to 1000 nM each time.
Regarding `CCNC1CCN(c2ccc3nc(-c4cc5cn(C)nc5cc4O)ccc3n2)CC1` [Compound 131], in data set [1], the “Effect of Exemplary Compounds” value was “B (B represents 100-1000 nM)”. Further, the 50% inhibitory concentration (IC50) in data set [2] is less than 100 nM; in data set [3] it was 1000 to 10000 nM; in data set [4], 1000 to 10000 nM; in data set [5], 1000 to 10000 nM; in data set [6] (setting [8]) it was 1000 to 10000 nM; in data set [6] (setting [9]), 1000 to 10000 nM. Also, the IC50 in data set [7] (setting [10]) and in data set [7] (setting [11]) was 1000 to 10000 nM each time. In addition, the AC50 in data set [6] (RT-qPCR) is greater than 10000 nM; in data set [7] (RT-qPCR), 1000 to 10000 nM.
With `Cn1cc2cc(-c3ccc4nc(N5CCC(NC(C)(C)C)CC5)ccc4n3)c(O)cc2n1` [Compound 132], in data set [1], the “Effect of Exemplary Compounds” value was “C (C represents 1000-9999 nM)”. For the same compound, the IC50 in data set [2], in data set [3], in data set [4], in data set [5], in data set [6] (setting [8]) and in data set [6] (setting [9]) was greater than 10000 nM each time. Also, the IC50 in data set [7] (setting [10]) and in data set [7] (setting [11]) was greater than 10000 nM in each case. For the same compound, the concentration at half-maximal activity (AC50) in data set [6] (RT-qPCR) and in data set [7] (RT-qPCR) was greater than 10000 nM throughout.
For `CN(C)C1CCN(c2ccc3nc(-c4cc5cn(C)nc5cc4O)ccc3n2)CC1` [Compound 133], in data set [1], the “Effect of Exemplary Compounds” value is reported as “B (B represents 100-1000 nM)”. Further, the IC50 in data set [2] is less than 100 nM; in data set [3], 1000 to 10000 nM; in data set [4], 1000 to 10000 nM; in data set [5], 1000 to 10000 nM; in data set [6] (setting [8]), 1000 to 10000 nM; in data set [6] (setting [9]), 1000 to 10000 nM. The IC50 in data set [7] (setting [10]) and in data set [7] (setting [11]) was 1000 to 10000 nM each time. Also, the values for the AC50 in data set [6] (RT-qPCR) and in data set [7] (RT-qPCR) were 1000 to 10000 nM and 100 to 1000 nM, respectively.
With `Cn1cc2cc(-c3ccc4nc(N5CCNCC5)ccc4n3)c(O)cc2n1` [Compound 136], the “Effect of Exemplary Compounds” value in data set [1] is “B (B represents 100-1000 nM)”. The IC50 in data set [2] is less than 100 nM; in data set [3], 100 to 1000 nM; in data set [4], 100 to 1000 nM; in data set [5], 100 to 1000 nM; in data set [6] (setting [8]) it was 1000 to 10000 nM; in data set [6] (setting [9]), 1000 to 10000 nM. Besides, the IC50 in data set [7] (setting [10]) and in data set [7] (setting [11]) was 100 to 1000 nM throughout. Besides, the AC50 in data set [6] (RT-qPCR) was 1000 to 10000 nM; in data set [7] (RT-qPCR) it was 100 to 1000 nM.
Consider `C[C@@H]1CC(c2ccc3nc(-c4cc5cn(C)nc5cc4O)ccc3n2)C[C@H](C)N1` (some centres unmarked) [Compound 137], for which the “Effect of Exemplary Compounds” value in data set [1] is recorded as “B (B represents 100-1000 nM)”. Further, the IC50 is less than 100 nM in data set [2]; 100 to 1000 nM in data set [3]; 100 to 1000 nM in data set [4]; 100 to 1000 nM in data set [5]; 100 to 1000 nM in data set [6] (setting [8]); 100 to 1000 nM in data set [6] (setting [9]). Also, the IC50 in data set [7] (setting [10]) and in data set [7] (setting [11]) was 100 to 1000 nM in each case. For the same compound, the concentration at half-maximal activity (AC50) in data set [6] (RT-qPCR) was in the range of 1000 to 10000 nM; in data set [7] (RT-qPCR) it was 100 to 1000 nM.
